Assay results reported in patent publication US7030157B2, “Pharmaceutical compositions, kits and methods comprising combinations of estrogen agonists/antagonists, estrogens and progestins” (priority 2001, dated 2006).
Entries after “also recorded” stand apart in the source; their conditions may differ.

Tests used:
[1] = tested on: OVX-induced bone resorption and bone turnover; assay: Dynamic histomorphometry of the proximal tibial metaphysis in OVX rats; format: in vivo, Sprague-Dawley female rats; details: daily gavage 28 days, EE 0.03 mg/kg, LAS 0.1 mg/kg
Procedure: (§1) Sprague-Dawley female rats at 5.5 months of age were used in this study. Rats underwent either sham-operation or bilateral ovariectomy. Beginning at 1 day post-surgery, the rats were treated (daily gavage) with vehicle, 17α-ethanyl estradiol (EE) alone, lasofoxifene (LAS) alone, or combination of both EE and LAS for 28 days, according to the following protocol.
(§2) There were 10 rats in each group. All rats received subcutaneous injections of the fluorescent marker, calcein, at 10 mg/kg on days 12 and 2 before necropsy in order to determine dynamic bone changes. After 28 days of treatment, the rats were necropsy, and the following endpoints were determined. • Body weight • Total serum cholesterol (TSC) • Uterine wet weight • Peripheral quantitative computerized tomography (pQCT). A pQCT X-ray machine (Stratec XCT Reasearch M, Norland Medical Systems, Fort Atkinson, Wis.) with version 5.40 was used to scan femurs from this study. A cross sectional slice 1 mm in thickness was taken of the femoral metaphysis approximately 5 mm proximal to the distal end. A voxel size of 0.10 mm was used, with dimensions of 100×100×1000 micometers. Cortical bone was defined and analyzed using contour mode 2 and cortical mode 4. The cortical shell was distinguished from soft tissue with an outer threshold setting of 349 mg/cm^3. Furthermore, cortical bone along the endocortical surface was determined with an inner threshold of 529 mg/cm^3. In order to determine the presence of trabecular bone, peel mode 4 was used. (Sub)Cortical bone was distinguished from cancellous bone with a threshold setting of 655 mg/cm^3. An additional concentric peel was also used to eliminate (sub)cortical bone from any analyses. For trabecular and cortical bone, content, density and area were determined. […] Tibiae were removed upon necropsy and removed of tissue. The proximal portion of the tibia was fixed in 70% ethanol, dehydrated in graded concentrations of ethanol, defatted in acetone, and embedded in methyl methacrylate. Four and ten μm sections were taken to determine several histomorphometric parameters with an Image Analysis System (Osteomeasure, Inc., Atlanta, Ga.). The 10 μm remained unstained while the 4 μm section was stained with modified Masson's Trichrome stain (5,6,7). Statistics
(§3) Statistics were calculated using StatView 4.0 software (Abacus Concepts, Inc., Berkeley, Calif.). Fisher's PLSD was used to determine the differences between each group. A p value<0.05 was considered a significant difference.

OVX-induced bone loss = assay: pQCT of the distal femur in OVX rats; format: in vivo, Sprague-Dawley female rats; details: for pQCT cortical content, distal femur / pQCT total density, distal femur: daily gavage 28 days, EE 0.03 mg/kg, LAS 0.1 mg/kg; for OVX-induced bone loss: fully efficacious doses (EE 0.03 mg/kg, LAS 0.1 mg/kg), 28 days
Procedure: as §1, §2, §3

[2] = Total serum cholesterol (TSC) in OVX rats; format: in vivo, Sprague-Dawley female rats; details: daily gavage 28 days, EE 0.03 mg/kg, LAS 0.1 mg/kg
Procedure: as §1
(§4) There were 10 rats in each group. All rats received subcutaneous injections of the fluorescent marker, calcein, at 10 mg/kg on days 12 and 2 before necropsy in order to determine dynamic bone changes. After 28 days of treatment, the rats were necropsy, and the following endpoints were determined. • Body weight • Total serum cholesterol (TSC) • Uterine wet weight • Peripheral quantitative computerized tomography (pQCT). A pQCT X-ray machine (Stratec XCT Reasearch M, Norland Medical Systems, Fort Atkinson, Wis.) with version 5.40 was used to scan femurs from this study. […] Cortical bone was defined and analyzed using contour mode 2 and cortical mode 4. […] Furthermore, cortical bone along the endocortical surface was determined with an inner threshold of 529 mg/cm^3. […] For trabecular and cortical bone, content, density and area were determined. […]
(§5) Statistics were calculated using StatView 4.0 software (Abacus Concepts, Inc., Berkeley, Calif.). […]

uterus of OVX rats = assay: Uterine wet weight in OVX rats
Procedure: as §1, §4, §5

breast cancer = details: previously reported; cited from earlier work
estrogen receptor β = estrogen receptor β (Homo sapiens, UniProt Q92731); details: previously reported; similar to the binding of estradiol; cited from earlier work
estrogen receptor α = estrogen receptor α (Homo sapiens, UniProt P03372); details: previously reported; similar to the binding of estradiol; cited from earlier work
[3] = tested on: uterine cancer cell lines; details: previously reported; cited from earlier work

Chain of estrogen receptor β (Q92731 whole entry): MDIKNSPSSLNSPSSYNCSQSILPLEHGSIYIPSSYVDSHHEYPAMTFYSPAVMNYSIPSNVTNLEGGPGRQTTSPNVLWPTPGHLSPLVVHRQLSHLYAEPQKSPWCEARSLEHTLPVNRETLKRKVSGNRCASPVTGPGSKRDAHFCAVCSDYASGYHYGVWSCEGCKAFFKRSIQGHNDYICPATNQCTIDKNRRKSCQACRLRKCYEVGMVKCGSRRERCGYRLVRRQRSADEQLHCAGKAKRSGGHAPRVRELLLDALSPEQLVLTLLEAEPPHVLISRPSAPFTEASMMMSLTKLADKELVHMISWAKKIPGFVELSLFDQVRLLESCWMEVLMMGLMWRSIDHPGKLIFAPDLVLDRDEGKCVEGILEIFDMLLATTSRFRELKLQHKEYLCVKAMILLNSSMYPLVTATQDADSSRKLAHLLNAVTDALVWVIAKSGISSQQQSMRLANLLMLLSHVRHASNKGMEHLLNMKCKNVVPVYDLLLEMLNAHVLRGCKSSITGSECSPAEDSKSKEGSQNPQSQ
Chain of estrogen receptor α (P03372 whole entry): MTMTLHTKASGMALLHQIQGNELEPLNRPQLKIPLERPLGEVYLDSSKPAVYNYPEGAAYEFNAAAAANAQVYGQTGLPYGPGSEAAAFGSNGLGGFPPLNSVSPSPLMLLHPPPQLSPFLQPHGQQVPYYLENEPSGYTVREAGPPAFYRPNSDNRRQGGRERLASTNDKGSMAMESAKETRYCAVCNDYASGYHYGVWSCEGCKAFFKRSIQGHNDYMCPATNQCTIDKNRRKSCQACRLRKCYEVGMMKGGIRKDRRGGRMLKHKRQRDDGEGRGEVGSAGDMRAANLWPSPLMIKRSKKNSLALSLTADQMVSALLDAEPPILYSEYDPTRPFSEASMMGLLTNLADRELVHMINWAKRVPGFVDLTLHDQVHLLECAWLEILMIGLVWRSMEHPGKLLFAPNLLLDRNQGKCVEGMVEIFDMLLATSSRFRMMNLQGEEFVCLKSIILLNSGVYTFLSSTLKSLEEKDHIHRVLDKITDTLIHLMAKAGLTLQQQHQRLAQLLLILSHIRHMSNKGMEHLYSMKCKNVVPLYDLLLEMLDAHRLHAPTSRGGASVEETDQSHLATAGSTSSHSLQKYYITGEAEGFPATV

Compound | bone formation rate (BFR/BS) [1] | mineral apposition rate (MAR) [1] | mineralizing surface (MS/BS) [1] | osteoclast number (Oc.N/BS) [1] | osteoclast surface (Oc.S/BS) [1] | pQCT cortical content, distal femur (OVX-induced bone loss) | pQCT total density, distal femur (OVX-induced bone loss) | OVX-induced bone loss (OVX-induced bone loss) | total serum cholesterol (TSC) ([2]; tartrate salt) | effect of LAS on the uterine effects of EE on co-administration (uterus of OVX rats; EE 0.03 mg/kg + LAS 0.1 mg/kg, 28 days, tartrate salt) | proliferation of breast cancer in vivo (breast cancer) | binding to estrogen receptor β (estrogen receptor β) | binding to estrogen receptor α (estrogen receptor α) | proliferation of uterine cancer cell lines in vitro [3] | total serum cholesterol (TSC) [2] | uterine wet weight (uterus of OVX rats; daily gavage 28 days, EE 0.03 mg/kg, LAS 0.1 mg/kg)
O=C(O)C(O)C(O)C(=O)O.Oc1ccc2c(c1)CC[C@H](c1ccccc1)[C@@H]2c1ccc(OCCN2CCCC2)cc1 [LAS, (−)-cis-6-phenyl-5-[4-(2-pyrrolidin-1-yl-ethoxy)-phenyl]-5,6,7,8-tetrahydro-naphthalene-2-ol, tartrate salt] | completely prevented these changes | completely prevented these changes | completely prevented these changes | completely prevented these changes | completely prevented these changes | completely prevented the OVX-induced decrease | completely prevented the OVX-induced decrease | completely prevented OVX-induced bone loss | prevented the OVX-induced increase in TSC; also recorded: significantly decreased TSC to a level below both sham controls and rats treated with EE | blocked the agonistic effects of EE in the uterus of OVX rats; also recorded: antagonized the uterine hypertrophy effects induced by EE | antagonizes the proliferation | bound selectively and with high affinity | bound selectively and with high affinity | antagonizes the proliferation |  | 
C#C[C@]1(O)CC[C@H]2[C@@H]3CCc4cc(O)ccc4[C@H]3CC[C@@]21C [EE, 17α-ethanyl estradiol, reference compound] | completely prevented these changes | completely prevented these changes | completely prevented these changes | completely prevented these changes | completely prevented these changes | completely prevented the OVX-induced decrease | completely prevented the OVX-induced decrease | completely prevented OVX-induced bone loss |  |  |  |  |  |  | completely prevented this increase | maintained the uterine wet weight at the level of sham controls
